Assay results taken from US9193736B2, “PDE 10a inhibitors for the treatment of type II diabetes” (Janssen Pharmaceutica, NV, priority 2013, dated 2015).
Where a name gives a salt, the structure may show the parent alone.

Assays:
[1] = target: Rat recombinant PDE10a (rPDE10a) (Rattus norvegicus (Rat), UniProt Q9QYJ6); assay: In vitro assay PDE10a: rat recombinant PDE10a SPA with 3H-cAMP substrate, IC50; format: biochemical; details: 60 nM cAMP, read-out: rPDE10a2 IC50
In short: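 Enzyme expressed in Sf9 cells via baculovirus and Ni-sepharose purified; reaction with 3H-cAMP ran 60 min at rt, stopped with PDE SPA beads. Compounds diluted in DMSO at 100-fold final concentration; blanks omitted enzyme.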

[2] = target: Human recombinant PDE10A2 (Homo sapiens (Human), UniProt Q9Y233); assay: In vitro hPDE10a: human recombinant PDE10A2 scintillation proximity assay, IC50; format: biochemical; details: human recombinant PDE10A2, SPA, 60 nM cAMP; read-out: hPDE10a2 IC50
Chain of Human recombinant PDE10A2 (Q9Y233 267-1055): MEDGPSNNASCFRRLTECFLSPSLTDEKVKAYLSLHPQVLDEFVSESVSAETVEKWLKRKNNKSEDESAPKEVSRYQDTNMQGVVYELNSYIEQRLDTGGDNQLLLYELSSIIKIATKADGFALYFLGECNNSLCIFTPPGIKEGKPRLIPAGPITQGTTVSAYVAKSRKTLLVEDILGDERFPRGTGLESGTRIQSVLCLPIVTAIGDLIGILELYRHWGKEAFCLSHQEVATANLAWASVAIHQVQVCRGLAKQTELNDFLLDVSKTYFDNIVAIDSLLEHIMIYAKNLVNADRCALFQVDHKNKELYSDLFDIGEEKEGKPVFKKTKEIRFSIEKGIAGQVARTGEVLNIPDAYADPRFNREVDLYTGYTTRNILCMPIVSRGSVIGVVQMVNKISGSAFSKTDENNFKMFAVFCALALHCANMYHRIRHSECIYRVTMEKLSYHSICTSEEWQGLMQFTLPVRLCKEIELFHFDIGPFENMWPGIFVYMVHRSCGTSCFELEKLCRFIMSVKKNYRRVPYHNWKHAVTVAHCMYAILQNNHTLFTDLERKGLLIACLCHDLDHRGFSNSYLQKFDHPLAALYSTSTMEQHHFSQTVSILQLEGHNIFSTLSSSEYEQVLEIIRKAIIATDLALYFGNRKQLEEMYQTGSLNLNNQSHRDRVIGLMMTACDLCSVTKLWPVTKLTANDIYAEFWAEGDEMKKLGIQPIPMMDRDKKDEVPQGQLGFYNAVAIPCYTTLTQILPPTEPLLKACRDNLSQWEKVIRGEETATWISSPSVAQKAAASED
In short: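 Purified recombinant human PDE10A2 (Ni-sepharose) was assayed by SPA, counting [3H]-AMP product captured on yttrium silicate beads added in zinc sulphate stop solution. Inhibition was expressed as % of activity without compound, with a no-enzyme low control. Repeat data points were aggregated.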

Chain of Rat recombinant PDE10a (rPDE10a) (Q9QYJ6 whole entry): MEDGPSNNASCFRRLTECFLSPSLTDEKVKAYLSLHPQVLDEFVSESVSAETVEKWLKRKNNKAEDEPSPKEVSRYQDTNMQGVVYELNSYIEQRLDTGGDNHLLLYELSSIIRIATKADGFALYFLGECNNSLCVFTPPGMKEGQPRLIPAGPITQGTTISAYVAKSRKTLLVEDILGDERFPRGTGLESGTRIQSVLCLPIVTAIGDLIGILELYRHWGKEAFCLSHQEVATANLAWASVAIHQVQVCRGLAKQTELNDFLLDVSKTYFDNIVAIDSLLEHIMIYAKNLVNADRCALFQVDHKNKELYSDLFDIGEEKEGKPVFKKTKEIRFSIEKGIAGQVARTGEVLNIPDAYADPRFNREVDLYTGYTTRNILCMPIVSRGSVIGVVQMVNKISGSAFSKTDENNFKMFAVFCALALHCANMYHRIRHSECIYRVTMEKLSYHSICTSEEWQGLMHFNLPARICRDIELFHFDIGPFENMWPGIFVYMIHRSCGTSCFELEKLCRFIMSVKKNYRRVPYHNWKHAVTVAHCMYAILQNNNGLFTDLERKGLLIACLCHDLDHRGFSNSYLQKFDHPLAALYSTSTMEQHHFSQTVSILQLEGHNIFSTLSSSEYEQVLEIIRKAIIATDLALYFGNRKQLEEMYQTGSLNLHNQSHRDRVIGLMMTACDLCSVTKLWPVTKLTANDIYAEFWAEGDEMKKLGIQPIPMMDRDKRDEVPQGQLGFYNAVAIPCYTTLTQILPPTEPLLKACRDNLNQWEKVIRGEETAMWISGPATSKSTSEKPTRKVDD

Row | SMILES | IC50 [1] | IC50 [2]
1 | O=C(O)[C@@H]1CCCN1C(=O)c1ccc(-c2c(CCc3ccc4ccccc4n3)nc3c(N4CCOCC4)ccnn23)cc1 [Cpd 72, (S)-1-(4-(8-Morpholino-2-(2-(quinolin-2-yl)ethyl)imidazo[1,2-b]pyridazin-3-yl)benzoyl)pyrrolidine-2-carboxylic acid trifluoroacetic acid salt] | 8 nM | 6 nM
2 | O=C(O)CNC(=O)c1ccc(-c2c(/C=C/c3ccc4ccccc4n3)nc3c(N4CCOCC4)ccnn23)cc1 [Cpd 66, (E)-2-(4-(8-Morpholino-2-(2-(quinolin-2-yl)vinyl)imidazo[1,2-b]pyridazin-3-yl)benzamido)acetic acid] | 5 nM | 9 nM
3 | C(=C\c1nc2c(N3CCOCC3)ccnn2c1-c1cccc(-c2nnn[nH]2)c1)/c1ccc2ccccc2n1 [Cpd 105, (E)-4-(3-(3-(1H-Tetrazol-5-yl)phenyl)-2-(2-(quinolin-2-yl)vinyl)imidazo[1,2-b]pyridazin-8-yl)morpholine trifluoroacetic acid salt] | 5 nM | 4 nM
4 | O=C(O)c1cc(/C=C/c2cn3nc(Cl)cc(N4CCOCC4)c3n2)nc2ccccc12 [Cpd 126, 2-[(E)-2-(6-Chloro-8-morpholin-4-ylimidazo[1,2-b]pyridazin-2-yl)ethenyl]quinoline-4-carboxylic acid] | 1 nM | 2 nM
5 | Cn1nc(-c2ccc(-c3c(CCc4ccc5ccccc5n4)nc4c(N5CCOCC5)ccnn34)cc2)[nH]c1=O [Cpd 78, 1-Methyl-3-[4-[8-(morpholin-4-yl)-2-[2-(quinolin-2-yl)ethyl]imidazo[1,2-b]pyridazin-3-yl]phenyl]-4,5-dihydro-1H-1,2,4-triazol-5-one] | 20 nM | 15 nM
6 | O=C(O)c1ccc(-c2c(C#Cc3ccccn3)nc3c(N4CCOCC4)ccnn23)cc1 [Cpd 86, 4-(8-Morpholino-2-(pyridin-2-ylethynyl)imidazo[1,2-b]pyridazin-3-yl)benzoic acid] | 2 nM | 2 nM
7 | O=C(O)c1ccc(-c2c(CCc3ccc4ccccc4n3)nc3c(N4CCOCC4)ccnn23)cc1O [compound 64, 2-Hydroxy-4-(8-morpholino-2-(2-(quinolin-2-yl)ethyl)imidazo[1,2-b]pyridazin-3-yl)benzoic acid] | 2 nM | 1 nM
8 | O=C(O)c1ccc(-c2c(/C=C/c3ccccn3)nc3c(N4CCOCC4)ccnn23)cc1 [Cpd 89, (E)-4-(8-Morpholino-2-(2-(pyridin-2-yl)vinyl)imidazo[1,2-b]pyridazin-3-yl)benzoic acid] | 62 nM | 89 nM
9 | COc1cccc(/C=C/c2nc3c(N4CCOCC4)ccnn3c2-c2ccc(C(=O)O)cc2)n1 [Cpd 133, 4-{2-[(E)-2-(6-Methoxypyridin-2-yl)ethenyl]-8-morpholin-4-ylimidazo[1,2-b]pyridazin-3-yl}benzoic acid] | 70 nM | 62 nM
10 | OC(c1ccc(-c2c(CCc3ccc4ccccc4n3)nc3c(N4CCOCC4)ccnn23)cc1)(C(F)(F)F)C(F)(F)F [compound 53, 1,1,1,3,3,3-Hexafluoro-2-(4-(8-morpholino-2-(2-(quinolin-2-yl)ethyl)imidazo[1,2-b]pyridazin-3-yl)phenyl)propan-2-ol] | 33 nM | 41 nM

Further compounds by falling IC50 [1], results first:

Row | IC50 [1] | IC50 [2] | SMILES
11 | 28 nM | 72 nM | C(=C\c1nc2c(N3CCOCC3)ccnn2c1N1CCCCC1)/c1ccc2ccccc2n1 [compound 154, (E)-4-(3-(Piperidin-1-yl)-2-(2-(quinolin-2-yl)vinyl)imidazo[1,2-b]pyridazin-8-yl)morpholine]
12 | 14 nM | 20 nM | c1ccc2nc(CCc3nc4c(N5CCOCC5)ccnn4c3-c3ccc(N4CCNCC4)nc3)ccc2c1 [Cpd 13, 4-(3-(6-(piperazin-1-yl)pyridin-3-yl)-2-(2-(quinolin-2-yl)ethyl)imidazo[1,2-b]pyridazin-8-yl)morpholine trifluoroacetic acid salt]
13 | 9 nM | 4 nM | O=c1[nH]nnn1-c1ccc(-c2c(CCc3ccc4ccccc4n3)nc3c(N4CCOCC4)ccnn23)cc1 [Cpd 62, 1-(4-(8-Morpholino-2-(2-(quinolin-2-yl)ethyl)imidazo[1,2-b]pyridazin-3-yl)phenyl)-1H-tetrazol-5(4H)-one]
14 | 7 nM | 8 nM | CC(C)[C@H](NC(=O)c1ccc(-c2c(/C=C/c3ccc4ccccc4n3)nc3c(N4CCOCC4)ccnn23)cc1)C(=O)O [Cpd 73, (S,E)-3-Methyl-2-(4-(8-morpholino-2-(2-(quinolin-2-yl)vinyl)imidazo[1,2-b]pyridazin-3-yl)benzamido)butanoic acid trifluoroacetic acid salt]
15 | 6 nM | 5 nM | O=C(O)CNC(=O)c1ccc(-c2c(CCc3ccc4ccccc4n3)nc3c(N4CCOCC4)ccnn23)cc1 [Cpd 68, 2-(4-(8-Morpholino-2-(2-(quinolin-2-yl)ethyl)imidazo[1,2-b]pyridazin-3-yl)benzamido)acetic acid trifluoroacetic acid salt]
16 | 6 nM | 6 nM | COc1cccc(-c2c(/C=C/c3ccc4c(C(=O)NS(C)(=O)=O)cccc4n3)nc3c(N4CCOCC4)ccnn23)c1 [Cpd 150, (E)-2-(2-(3-(3-Methoxyphenyl)-8-morpholinoimidazo[1,2-b]pyridazin-2-yl)vinyl)-N-(methylsulfonyl)quinoline-5-carboxamide]
17 | 6 nM | 2 nM | CS(=O)(=O)NC(=O)CCc1ccc(-c2c(/C=C/c3ccc4ccccc4n3)nc3c(N4CCOCC4)ccnn23)cn1 [Cpd 129, (E)-N-(Methylsulfonyl)-3-(5-(8-morpholino-2-(2-(quinolin-2-yl)vinyl)imidazo[1,2-b]pyridazin-3-yl)pyridin-2-yl)propanamide trifluoroacetic acid salt]
18 | 5 nM | 8 nM | CS(=O)(=O)Nc1ccc(-c2c(CCc3ccc4ccccc4n3)nc3c(N4CCOCC4)ccnn23)cc1 [compound 45, N-(4-(8-Morpholino-2-(2-(quinolin-2-yl)ethyl)imidazo[1,2-b]pyridazin-3-yl)phenyl)methanesulfonamide]
19 | 3 nM | 8 nM | CS(=O)(=O)NC(=O)Nc1ccc(-c2c(/C=C/c3ccc4ccccc4n3)nc3c(N4CCOCC4)ccnn23)cc1 [compound 50, (E)-N-((4-(8-Morpholino-2-(2-(quinolin-2-yl)vinyl)imidazo[1,2-b]pyridazin-3-yl)phenyl)carbamoyl)methanesulfonamide]
20 | 3 nM | 5 nM | O=C(O)CCC(=O)N1CCN(c2c(/C=C/c3ccc4ccccc4n3)nc3c(N4CCOCC4)ccnn23)CC1 [compound 155, (E)-4-(4-(8-Morpholino-2-(2-(quinolin-2-yl)vinyl)imidazo[1,2-b]pyridazin-3-yl)piperazin-1-yl)-4-oxobutanoic acid]
21 | 3 nM | 3 nM | O=C(O)CCNc1ccc(-c2c(/C=C/c3ccc4ccccc4n3)nc3c(N4CCOCC4)ccnn23)cc1 [Cpd 93, (E)-3-(4-(8-Morpholino-2-(2-(quinolin-2-yl)vinyl)imidazo[1,2-b]pyridazin-3-yl)phenylamino)propanoic acid trifluoroacetic acid salt]
22 | 1 nM | 1 nM | O=C(O)c1ccc(-c2c(C#Cc3nc4ccccc4s3)nc3c(N4CCOCC4)ccnn23)cc1 [Cpd 87, 4-(2-(Benzo[d]thiazol-2-ylethynyl)-8-morpholinoimidazo[1,2-b]pyridazin-3-yl)benzoic acid]
